From the OPERA property sets (Mansouri et al. 2018)

Compared with `O=C1CN=C(c2ccccc2)c2cc([N+](=O)[O-])ccc2N1`, `O=c1c2ccccc2sc2ccccc12` is higher in logP: 2.25 for the first, 3.99 for the second.

First: Cc1nccnc1CC(C)C
Second: Cc1cccc(C)n1
The logP of the first is higher: 1.96 for the first, 1.68 for the second.

First: COC1CC(OC2CCC3(C)C(CCC4C3CC(O)C3(C)C(C5=CC(=O)OC5)CCC43O)C2)OC(C)C1OC1CC(O)C(OC2CC(O)C(OC)C(C)O2)C(C)O1 (configuration not stated)
Second: C[C@]12CC[C@H]3[C@@H](CCC4=CC(=O)CC[C@@H]43)[C@@H]1CC[C@@H]2O
The logP of the first is lower: 2.14 for the first, 2.62 for the second.

`COP(=O)(OC)O/C(C)=C/C(=O)N(C)C` and `CCC(NC(C)=O)C(=O)OC` (configuration not stated) are within 0.2 log units of each other in logP: 0 for the first, -0.17 for the second.

First: COc1ccccc1C(=O)NCCN(C)C
Second: CCOc1ccccc1OCC
The logP of the first is lower: 1.14 for the first, 2.42 for the second.

First: [O-][n+]1cccc(O)c1
Second: Cc1cccc(C)c1O
The logP of the first is lower: -0.61 for the first, 2.36 for the second.

`O=C(O)Cc1cccc(I)c1` and `O=C(O)Cc1cccc(C(F)(F)F)c1` are the same in logP: 2.62 for the first, 2.62 for the second.

First: O=[N+]([O-])c1cccnc1
Second: O=[N+]([O-])c1ccc(C=Cc2ncc[nH]2)o1
The logP of the first is lower: 0.6 for the first, 1.32 for the second.

Going from `O=Nc1c(Br)cc2ccccc2c1O` to `Nc1ccccc1Br`, the logP falls from 2.93 to 2.11.

Compared with `COc1cccc(C(N)=O)c1`, `COC(=O)Nc1cccc(Cl)c1` is higher in logP: 0.85 for the first, 2.58 for the second.

Compared with `CC1CN1C1=CC(=O)C(N2CC2C)=CC1=O` (configuration not stated), `Cc1cc2c(cc1C)C(=O)C=CC2=O` is higher in logP: 1.07 for the first, 2.49 for the second.

Going from `CCC(C)c1cc([N+](=O)[O-])cc(C(C)CC)c1O` (configuration not stated) to `CCc1cc([N+](=O)[O-])cc([N+](=O)[O-])c1O`, the logP falls from 4.8 to 2.67.

Compared with `O=C(O)Cc1ccc(OCCCc2ccccc2)c(Cl)c1`, `CN(C)C(=O)Nc1cccc(CCc2ccccc2)c1` is lower in logP: 3.9 for the first, 3.21 for the second.

First: CN1CCN(Cc2ccc(C(=O)OCn3ncc4c(=O)[nH]cnc43)cc2)CC1
Second: CCCCOC(=O)c1ccc(N)cc1
The logP of the first is lower: 1.47 for the first, 2.87 for the second.

Going from `CN(C=O)c1ccccc1` to `Cn1cc(C(=O)O)c2ccccc21`, the logP rises from 1.09 to 2.

Compared with `CSc1ccc2c(c1)N(CCC1CCCCN1C)c1ccccc1S2` (configuration not stated), `Clc1cccc(-c2cccc(Cl)c2Cl)c1` is lower in logP: 5.9 for the first, 5.57 for the second.

Compared with `Cn1ccc(=O)[nH]c1=O`, `O=c1[nH]cc(Cl)c(=O)[nH]1` is higher in logP: -1.2 for the first, -0.35 for the second.

Going from `CCCCOc1cccnn1` to `CCCCOc1ccc(O)cc1`, the logP rises from 1.8 to 2.9.

Compared with `CCC1(C2=CCCCCC2)C(=O)NC(=O)NC1=O`, `CCCCCCOc1cccc(NC(=O)OCCN2CCCCC2)c1` is higher in logP: 2.03 for the first, 5.51 for the second.

Going from `O=C(O)CCCl` to `CS(=O)(=O)CCC(N)C(=O)O` (configuration not stated), the logP falls from 0.41 to -3.1.

Going from `NCCCc1ccncc1` to `NC(=O)CCCc1ccncc1`, the logP falls from 0.4 to -0.09.

Going from `Cc1ccc(Cl)cc1Cl` to `Cc1ccc(C)c(O)c1`, the logP falls from 4.24 to 2.33.

Going from `COC(=O)Cn1cnc([N+](=O)[O-])n1` to `Cc1ncc([N+](=O)[O-])n1CCS(C)(=O)=O`, the logP falls from -0.38 to -0.82.

First: CN(CC(F)(F)F)N=Nc1ccc(C(N)=O)cc1
Second: CC(=O)c1ccc(Br)cc1
The logP of the first is lower: 1.86 for the first, 2.43 for the second.

Compared with `Oc1c(Cl)cc(Cl)c(Cl)c1Cc1c(O)c(Cl)cc(Cl)c1Cl`, `COc1cc(Cl)c(Cl)cc1O` is lower in logP: 7.54 for the first, 3.26 for the second.

Compared with `CNC(=O)Oc1cc(C)cc(C)c1`, `CNC(=O)Oc1ccc2c(c1)[C@]1(C)CCN(C)[C@@H]1N2C` is lower in logP: 2.23 for the first, 1.58 for the second.

Going from `O=C1OC(=O)c2ccccc21` to `c1ccc2c(c1)oc1ccccc12`, the logP rises from 1.6 to 4.12.

Going from `c1ccc(Cc2cc(-c3ccccc3)nnc2NCCN2CCOCC2)cc1` to `CC(=O)N[C@@H](Cc1ccccc1)C(=O)NCC(=O)N[C@@H](CC(C)C)C(N)=O`, the logP falls from 3.65 to 0.6.

Compared with `FC(F)(F)c1nc2c(Cl)c(Cl)ccc2[nH]1`, `Clc1cncc(Cl)c1` is lower in logP: 3.49 for the first, 2.56 for the second.

Going from `CC(C)Nc1nc(NC(C)(C)C)nc(SC(F)F)n1` to `Nc1nc(N)nc(-c2cccc(F)c2)n1`, the logP falls from 4.7 to 1.73.

Compared with `O=CO`, `NC(N)=O` is lower in logP: -0.54 for the first, -2.11 for the second.

Going from `OC[C@H]1O[C@@H](Oc2ccc(O)cc2)[C@H](O)[C@@H](O)[C@@H]1O` to `COc1cc(C(O)CO)ccc1O` (configuration not stated), the logP rises from -1.35 to -0.58.

First: OCCCO
Second: O=C(O)COc1ccc(Cl)c(Br)c1
The logP of the first is lower: -1.04 for the first, 2.75 for the second.

First: CCc1ccsc1
Second: NC(=O)Cc1ccncc1
The logP of the first is higher: 2.82 for the first, -0.65 for the second.

First: Cc1cccc(OC(=O)c2ccc(N)cc2O)c1
Second: Cc1cc(-c2ccc(N)c(C)c2)ccc1N
The logP of the first is higher: 3.64 for the first, 2.34 for the second.

First: c1cnn(C23CC4CC(CC(C4)C2)C3)c1
Second: Cc1cccc(C)c1NC(=O)C1CNCCN1 (configuration not stated)
The logP of the first is higher: 3.05 for the first, 0.38 for the second.

Going from `CC(=O)Nc1cccc2cccnc12` to `COC(=O)C(C)N(C(=O)c1ccco1)c1c(C)cccc1C` (configuration not stated), the logP rises from 1.91 to 2.61.

Going from `CCN(CC)CCNc1ccc(C)c(Cl)c1` to `CCOC(=O)C(=Cc1cccc([N+](=O)[O-])c1)C(=O)OCC`, the logP falls from 4.14 to 2.71.

First: CC(C)COC(N)=O
Second: CCOC(=O)C(F)F
The logP of the first is lower: 0.65 for the first, 0.87 for the second.

`S=c1[nH]c2ccccc2[nH]1` and `Clc1nnnn1-c1ccccc1` are within 0.2 log units of each other in logP: 1.66 for the first, 1.48 for the second.

First: C/N=C(\N)NC#N
Second: O=[N+]([O-])C=Cc1ccoc1
The logP of the first is lower: -0.77 for the first, 1.41 for the second.
